Assay results published in ChEMBL document CHEMBL3856237, “Synthesis and antinociceptive activity of new 2-substituted 4-(trifluoromethyl)-5,6-dihydrobenzo[h]quinazolines” (Bioorg Med Chem Lett, 2016).
The source made the active and inactive calls.

How the values were obtained:
Mus musculus [1] = test: Antinociceptive activity in Swiss mouse assessed as inhibition of capsaicin induced nociception by measuring paw licking time at 100 mg/kg administered via oral gavage for 1 hr followed by capsaicin challenge measured for 5 mins post dose relative to control; assay type: functional
Mus musculus [2] = test: Antinociceptive activity in CFA-induced arthritic pain Swiss mouse model assessed as inhibition of mechanical hyperalgesia by measuring paw withdrawal threshold at 100 mg/kg administered via oral gavage measured at 2 hrs post dose by Von Frey filament assay relative to control; assay type: functional
Mus musculus [3] = test: Antinociceptive activity in CFA-induced arthritic pain Swiss mouse model assessed as inhibition of mechanical hyperalgesia by measuring paw withdrawal threshold at 100 mg/kg administered via oral gavage measured up to 4 hrs post dose by Von Frey filament assay; assay type: functional, organism-based
Mus musculus [4] = test: Antinociceptive activity in CFA-induced arthritic pain Swiss mouse model assessed as inhibition of mechanical hyperalgesia by measuring paw withdrawal threshold administered via oral gavage measured at 2 hrs post dose by Von Frey filament assay; assay type: functional; conditions: for ED50: read-out: ID50 (the source's name); for minimal effective dose: read-out: MED
Mus musculus [5] = test: Antinociceptive activity in CFA-induced arthritic pain Swiss mouse model assessed as inhibition of mechanical hyperalgesia by measuring paw withdrawal threshold at 300 mg/kg administered via oral gavage measured at 2 hrs post dose by Von Frey filament assay relative to control; assay type: functional
Mus musculus [6] = test: Toxicity in Swiss mouse assessed as effect on spontaneous locomotory activity by measuring number of areas crossed at 100 mg/kg administered via oral gavage for 1 hr measured up to 5 mins post dose by open field test (reference value: 27 +/- 6 ); assay type: organism-based; conditions: in vivo
Mus musculus [7] = test: Toxicity in Swiss mouse assessed as effect on forced locomotory activity at 100 mg/kg administered via oral gavage for 1 hr measured up to 4 mins post dose by rotarod test; assay type: organism-based; conditions: in vivo
[8] = Solubility of the compound in DMSO; assay type: physicochemical
Mus musculus [9] = test: Antinociceptive activity in CFA-induced arthritic pain Swiss mouse model assessed as inhibition of mechanical hyperalgesia by measuring paw withdrawal threshold at 100 mg/kg administered via oral gavage measured up to 2 hrs post dose by Von Frey filament assay; assay type: functional, organism-based

SMILES | solubility [8] | inhibition in vivo at 100 mg/kg (Mus musculus [1]) [%] | Imax (Mus musculus [2]) | inhibition (Mus musculus [3]) | ED50 (Mus musculus [4]) [mg/kg] | minimal effective dose (Mus musculus [4]) [mg/kg] | Imax (Mus musculus [5]) [%] | Activity (Mus musculus [6]) | Activity (Mus musculus [7]) | inhibition (Mus musculus [9])
CC(C(=O)O)c1cccc(C(=O)c2ccccc2)c1 (stereo unspecified) [KETOPROFEN] | – | 81 | 70% | Active | 144 | 100 to 300 | 75 | 38 | Non-Toxic | –
Nc1nc2c(c(C(F)(F)F)n1)CCc1ccccc1-2 | – | – | – | – | – | – | – | 22 | Non-Toxic | –
CSc1nc2c(c(C(F)(F)F)n1)CCc1ccccc1-2 | – | – | – | – | – | – | – | 23 | Non-Toxic | –
FC(F)(F)c1ncnc2c1CCc1ccccc1-2 | Insoluble | – | – | – | – | – | – | – | – | –

Now from value to compound, other results behind:

solubility [8] | SMILES | inhibition in vivo at 100 mg/kg (Mus musculus [1]) [%] | Imax (Mus musculus [2]) | inhibition (Mus musculus [3]) | ED50 (Mus musculus [4]) [mg/kg] | minimal effective dose (Mus musculus [4]) [mg/kg] | Imax (Mus musculus [5]) [%] | Activity (Mus musculus [6]) | Activity (Mus musculus [7]) | inhibition (Mus musculus [9])
Insoluble | Cc1nc2c(c(C(F)(F)F)n1)CCc1ccccc1-2 | – | – | – | – | – | – | – | – | –
Soluble | FC(F)(F)c1nc(-c2ccccc2)nc2c1CCc1ccccc1-2 | 65 | 64 - 71% | – | 241 | 100 | – | 25 | Non-Toxic | Active
Soluble | FC(F)(F)c1nc(-n2cccc2)nc2c1CCc1ccccc1-2 | 67 | – | – | – | – | – | 23 | Non-Toxic | –
